US20160251725A1, “METHOD FOR PREDICTING CLINICAL TOXICITY AND OUTCOME” (AGENCY FOR SCIENCE, TECHNOLOGY AND RESEARCH, priority 2013, published 2016)
Read-outs that look alike come from different tables or passages of the source.

Columns and labels:
mRCC patients = assay: Sunitinib toxicities in mRCC patients (CTCAE version 3.0), association with patient factors and genotypes; assay type: in vivo, human
Method: Twelve patients in this study received a starting dose of 50 mg daily. Six patients started with 25 mg daily due to advanced age or patients' aversion to expected toxicities.
Patient characteristics were also collected including age, gender, ethnicity, body weight and height, and Eastern Cooperative Oncology Group (ECOG) performance status. Memorial Sloan-Kettering Cancer Center (MSKCC) prognostic score was calculated for each patient with available data. All the collected data were de-identified by a third party before being used in statistical analysis. The follow-up period ended at the end of April, 2014.
The toxicities analyzed included leucopenia, neutropenia, thrombocytopenia, diarrhea, hand-foot syndrome and early toxicity-necessitated treatment termination. […] Early toxicity-necessitated treatment termination was defined as interruption of the first or second treatment cycle consented by the patient and the physician based on recognition of intolerable or life-threatening toxicities without evidence of progressive disease and failure to resume treatment as far as the patient was followed. For patients experiencing any toxicity grade≧2, cycle interruptions were frequently required; in such cases, a resumed treatment with 25% dose reduction would be applied for safety and life quality considerations.
Genotype associations with toxicity events or responsive tumor were first analyzed using univariate logistic regression. Genotypes generating P<0.20 were further analyzed using multivariate logistic regression including patient age, gender, baseline ECOG status and starting dose as covariates. Progression-free survival and overall survival were estimated by means of Kaplan-Meier method, while the associations of genotypes and patient characteristics with PFS and OS were analyzed using two-tailed log rank test. The effects of genotypes on the progression-free survival and overall survival were then evaluated using multivariate Cox regression model by including genotypes and patient characteristics with P<0.05 in univariate analysis. […] In all analyses, missing data were kept missing except for baseline ECOG status, which was replaced with the median value. As this was designed as a validation study of previously observed correlations rather than an exploratory evaluation, multiple testing correction was not done.

patients = conditions: cited from earlier work; for Dose reductions: n = 96, Beuselinck et al., 2014
[1] = ABCB1 2677 TT + AT + GT vs Other
[2] = ABCB1 haplotype TTT/TTT vs Other
[3] = ABCG2 421 C/A AA genotype, n = 65, Kim et al., 2013

CCN(CC)CCNC(=O)c1c(C)[nH]c(/C=C2\C(=O)Nc3ccc(F)cc32)c1C [sunitinib]
Decrease of the risk of diarrhea (mRCC patients; ABCB1 1236 T allele): 25 fold
Decrease of the risk of early toxicity-necessitated treatment termination (mRCC patients; ABCB1 1236 T allele): 10 fold
Decrease of the risk of neutropenia (mRCC patients; ABCB1 1236 T allele): 3 fold
Diarrhea prevalence (mRCC patients; ABCB1 1236 T/C CC): 7/9
Neutropenia prevalence (mRCC patients; ABCB1 1236 T/C CC + CT): 27/52
Toxicity-necessitated treatment termination prevalence (mRCC patients; ABCB1 1236 T/C CC + CT): 10/53
Neutropenia prevalence (mRCC patients; ABCB1 1236 T/C TT): 11/32
Toxicity-necessitated treatment termination prevalence (mRCC patients; ABCB1 1236 T/C TT): 2/30
Diarrhea prevalence (mRCC patients; ABCB1 1236 T/C TT + CT): 13/82
Diarrhea OR multivariate (mRCC patients; ABCB1 1236 TT + CT vs CC): 0.04
Diarrhea OR univariate (mRCC patients; ABCB1 1236 TT + CT vs CC): 0.1
Neutropenia OR multivariate (mRCC patients; ABCB1 1236 TT vs CC + CT): 0.3
Neutropenia OR univariate (mRCC patients; ABCB1 1236 TT vs CC + CT): 0.5
Toxicity-necessitated treatment termination OR multivariate (mRCC patients; ABCB1 1236 TT vs CC + CT): 0.1
Toxicity-necessitated treatment termination OR univariate (mRCC patients; ABCB1 1236 TT vs CC + CT): 0.3
Neutropenia prevalence (mRCC patients; ABCB1 2677 G/TA Other): 20/35
Neutropenia prevalence (mRCC patients; ABCB1 2677 G/TA TT + AT + GT): 20/53
Decrease of the risk of neutropenia (mRCC patients; ABCB1 2677 T allele): 3 fold
Neutropenia OR multivariate (mRCC patients; [1]): 0.4
Neutropenia OR univariate (mRCC patients; [1]): 0.5
Decrease of the risk of neutropenia (mRCC patients; ABCB1 3435, 1236, 2677 TTT haplotype): 10 fold
Neutropenia prevalence (mRCC patients; ABCB1 3435 C/T CC + CT): 38/75
Neutropenia prevalence (mRCC patients; ABCB1 3435 C/T TT): 1/12
Decrease of the risk of diarrhea (mRCC patients; ABCB1 3435 T allele): 3 fold
Decrease of the risk of neutropenia (mRCC patients; ABCB1 3435 T allele): 10 fold
Diarrhea prevalence (mRCC patients; ABCB1 3435 T/C CC): 11/34
Diarrhea prevalence (mRCC patients; ABCB1 3435 T/C TT + CT): 9/60
Diarrhea OR multivariate (mRCC patients; ABCB1 3435 TT + CT vs CC): 0.3
Diarrhea OR univariate (mRCC patients; ABCB1 3435 TT + CT vs CC): 0.4
Neutropenia OR multivariate (mRCC patients; ABCB1 3435 TT vs CC + CT): 0.1
Neutropenia OR univariate (mRCC patients; ABCB1 3435 TT vs CC + CT): 0.1
Neutropenia prevalence (mRCC patients; ABCB1 haplotype Other): 38/79
Neutropenia prevalence (mRCC patients; ABCB1 haplotype TTT/TTT): 1/8
Neutropenia OR multivariate (mRCC patients; [2]): 0.1
Neutropenia OR univariate (mRCC patients; [2]): 0.2
Decrease of the risk of neutropenia (mRCC patients; ABCG2 421 A allele): 3 fold
Neutropenia OR multivariate (mRCC patients; ABCG2 421 AA vs CC + AC): 0.3
Neutropenia OR univariate (mRCC patients; ABCG2 421 AA vs CC + AC): 0.5
Neutropenia prevalence (mRCC patients; ABCG2 421 C/A AA): 16/44
Neutropenia prevalence (mRCC patients; ABCG2 421 C/A CC + AC): 23/42
Diarrhea OR univariate (mRCC patients; Age): 1.0
Leucopenia OR univariate (mRCC patients; Age): 1.0
Neutropenia OR univariate (mRCC patients; Age): 1.0
Toxicity-necessitated treatment termination OR univariate (mRCC patients; Age): 1.1
Diarrhea prevalence (mRCC patients; Baseline ECOG 0): 6/27
Leucopenia prevalence (mRCC patients; Baseline ECOG 0): 1/25
Neutropenia prevalence (mRCC patients; Baseline ECOG 0): 13/25
Toxicity-necessitated treatment termination prevalence (mRCC patients; Baseline ECOG 0): 2/26
Diarrhea prevalence (mRCC patients; Baseline ECOG 1): 9/50
Leucopenia prevalence (mRCC patients; Baseline ECOG 1): 9/44
Neutropenia prevalence (mRCC patients; Baseline ECOG 1): 22/46
Toxicity-necessitated treatment termination prevalence (mRCC patients; Baseline ECOG 1): 7/44
Diarrhea OR univariate (mRCC patients; Baseline ECOG 1 vs 0): 0.8
Leucopenia OR univariate (mRCC patients; Baseline ECOG 1 vs 0): 6.2
Neutropenia OR univariate (mRCC patients; Baseline ECOG 1 vs 0): 0.9
Toxicity-necessitated treatment termination OR univariate (mRCC patients; Baseline ECOG 1 vs 0): 2.3
Diarrhea prevalence (mRCC patients; Baseline ECOG 2): 4/12
Leucopenia prevalence (mRCC patients; Baseline ECOG 2): 1/12
Neutropenia prevalence (mRCC patients; Baseline ECOG 2): 5/12
Toxicity-necessitated treatment termination prevalence (mRCC patients; Baseline ECOG 2): 2/12
Diarrhea OR univariate (mRCC patients; Baseline ECOG 2 vs 0): 1.8
Leucopenia OR univariate (mRCC patients; Baseline ECOG 2 vs 0): 2.2
Neutropenia OR univariate (mRCC patients; Baseline ECOG 2 vs 0): 0.7
Toxicity-necessitated treatment termination OR univariate (mRCC patients; Baseline ECOG 2 vs 0): 2.4
Diarrhea prevalence (mRCC patients; Baseline ECOG 3): 1/6
Leucopenia prevalence (mRCC patients; Baseline ECOG 3): 0/4
Neutropenia prevalence (mRCC patients; Baseline ECOG 3): 0/5
Toxicity-necessitated treatment termination prevalence (mRCC patients; Baseline ECOG 3): 2/5
Diarrhea OR univariate (mRCC patients; Baseline ECOG 3 vs 0): 0.7
Toxicity-necessitated treatment termination OR univariate (mRCC patients; Baseline ECOG 3 vs 0): 8.0
Diarrhea OR univariate (mRCC patients; Female vs Male): 1.2
Leucopenia OR univariate (mRCC patients; Female vs Male): 3.3
Neutropenia OR univariate (mRCC patients; Female vs Male): 2.8
Toxicity-necessitated treatment termination OR univariate (mRCC patients; Gender (printed on the Male row)): 0.9
Diarrhea prevalence (mRCC patients; Gender Female): 5/21
Leucopenia prevalence (mRCC patients; Gender Female): 5/20
Neutropenia prevalence (mRCC patients; Gender Female): 13/20
Toxicity-necessitated treatment termination prevalence (mRCC patients; Gender Female): 3/21
Diarrhea prevalence (mRCC patients; Gender Male): 15/74
Leucopenia prevalence (mRCC patients; Gender Male): 6/65
Neutropenia prevalence (mRCC patients; Gender Male): 27/68
Toxicity-necessitated treatment termination prevalence (mRCC patients; Gender Male): 10/66
Diarrhea prevalence (mRCC patients; Starting dose 37.5 mg): 15/78
Leucopenia prevalence (mRCC patients; Starting dose 37.5 mg): 10/70
Neutropenia prevalence (mRCC patients; Starting dose 37.5 mg): 32/72
Toxicity-necessitated treatment termination prevalence (mRCC patients; Starting dose 37.5 mg): 8/71
Diarrhea prevalence (mRCC patients; Starting dose 50 mg): 3/12
Leucopenia prevalence (mRCC patients; Starting dose 50 mg): 1/11
Neutropenia prevalence (mRCC patients; Starting dose 50 mg): 7/11
Toxicity-necessitated treatment termination prevalence (mRCC patients; Starting dose 50 mg): 2/12
Diarrhea OR univariate (mRCC patients; Starting dose 37.5 vs <37.5 mg): 0.4
Neutropenia OR univariate (mRCC patients; Starting dose 37.5 vs <37.5 mg): 3.2
Toxicity-necessitated treatment termination OR univariate (mRCC patients; Starting dose 37.5 vs <37.5 mg): 0.0
Diarrhea OR univariate (mRCC patients; Starting dose 50 vs <37.5 mg): 0.5
Neutropenia OR univariate (mRCC patients; Starting dose 50 vs <37.5 mg): 7.0
Toxicity-necessitated treatment termination OR univariate (mRCC patients; Starting dose 50 vs <37.5 mg): 0.1
Diarrhea prevalence (mRCC patients; Starting dose <37.5 mg): 2/5
Leucopenia prevalence (mRCC patients; Starting dose <37.5 mg): 0/4
Neutropenia prevalence (mRCC patients; Starting dose <37.5 mg): 1/5
Toxicity-necessitated treatment termination prevalence (mRCC patients; Starting dose <37.5 mg): 3/4
Leucopenia prevalence (cases affected/total in group) (mRCC patients; all patients (n = 85), first cycle): 11/85
Toxicity-necessitated treatment termination before completing the first two cycles, prevalence (mRCC patients; all patients (n = 87)): 13/87
Neutropenia prevalence (cases affected/total in group) (mRCC patients; all patients (n = 88), first cycle): 40/88
Diarrhea prevalence (cases affected/total in group) (mRCC patients; all patients (n = 95), first cycle): 20/95
Increase of the risk of leucopenia (mRCC patients; both, human, in vivo): 8.0 fold
Increase of the risk of neutropenia (mRCC patients; both, human, in vivo): 2.7 fold
Leucopenia prevalence (mRCC patients; both, human, in vivo): 8/41
Severe to life-threatening toxicities (mRCC patients; early use, initiated at 50 mg daily): frequently noted
Neutropenia prevalence (mRCC patients; human, in vivo): 23/41
Dose reductions (patients; ABCB1 1236 T/C TT genotype): Less dose
Dose reductions (patients; ABCB1 2677G/TA TT or TA genotypes): Less dose
HFS (hand-foot syndrome) (patients; ABCB1 TTT haplotype, n = 219, van Erp et al., 2009): HFS increased
HFS (hand-foot syndrome) (patients; [3]): More
Neutropenia (patients; [3]): More
Thrombocytopenia (patients; [3]): More
Any toxicity grade>2 (patients; in vivo): increased with T
Leucopenia (patients; in vivo): increased with T
